Several values for one entry are separate records, joined by “and”; a condition that tells them apart may be missing. Identical values can stand only once. Toxic doses and inconclusive results are not listed.

The text below walks through data of PubChem BioAssay AID256 (DTP/NCI, 2004).

This experiment concerns CD2F1 mice, L1210 leukemia ip, survival T/C. The experiment can be described thus: NCI In Vivo Anticancer Drug Screen. Data for tumor model L1210 Leukemia (intraperitoneal) in CD2F1 (CDF1) mice. As to conditions: higher = longer survival. Summed up:
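In this screen, transplantable tumors were grown in mice given either the compound or its vehicle. Results were expressed as the treated measurement relative to the control measurement.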

[1] abbreviates: endpoint: mean survival time, dose: 100.0 mg/kg/injection, schedule: Q01DX009 (ip), vehicle: saline.
Setting [2] is: endpoint: mean survival time, dose: 200.0 mg/kg/injection, schedule: Q01DX009 (ip), vehicle: saline.
The mark [3] stands for this setting: endpoint: mean survival time, dose: 400.0 mg/kg/injection, schedule: Q01DX009 (ip), vehicle: saline.
The mark [4] stands for this setting: endpoint: mean survival time, dose: 100.0 mg/kg/injection, schedule: Q01DX001 (ip), vehicle: saline with Tween-80.
Where [5] appears, read: endpoint: mean survival time, dose: 200.0 mg/kg/injection, schedule: Q01DX001 (ip), vehicle: saline with Tween-80.
Where [6] appears, read: endpoint: mean survival time, dose: 50.0 mg/kg/injection, schedule: Q01DX009 (ip), vehicle: saline with Tween-80.
[7] abbreviates: endpoint: mean survival time, dose: 100.0 mg/kg/injection, schedule: Q01DX009 (ip), vehicle: saline with Tween-80.
Setting [8] is: endpoint: mean survival time, dose: 200.0 mg/kg/injection, schedule: Q01DX009 (ip), vehicle: saline with Tween-80.
Setting [9] is: endpoint: mean survival time, dose: 100.0 mg/kg/injection, schedule: Q04DX003 (ip), vehicle: saline with Tween-80.
The mark [10] stands for this setting: endpoint: mean survival time, dose: 200.0 mg/kg/injection, schedule: Q04DX003 (ip), vehicle: saline with Tween-80.
Setting [11] is: endpoint: mean survival time, dose: 400.0 mg/kg/injection, schedule: Q01DX001 (ip), vehicle: saline with Tween-80.
Where [12] appears, read: endpoint: mean survival time, dose: 400.0 mg/kg/injection, schedule: Q04DX003 (ip), vehicle: saline with Tween-80.

Take `O=C1CNC(=O)N1CN1CCOCC1`: the T/C was 108 % of control (endpoint: median survival time, dose: 50.0 mg/kg/injection, schedule: Q01DX009 (ip), vehicle: Klucel (hydroxypropylcellulose) (HPC)); 116 % of control (endpoint: median survival time, dose: 100.0 mg/kg/injection, schedule: Q01DX009 (ip), vehicle: Klucel (hydroxypropylcellulose) (HPC)); 116 % of control (endpoint: median survival time, dose: 200.0 mg/kg/injection, schedule: Q01DX009 (ip), vehicle: Klucel (hydroxypropylcellulose) (HPC)); 117 % of control (endpoint: median survival time, dose: 400.0 mg/kg/injection, schedule: Q01DX009 (ip), vehicle: Klucel (hydroxypropylcellulose) (HPC)).
Take `CC12OC3(C)C4C(O)C1C1(C)OC4(C)C3C(O)C21` (centres undefined): the T/C reads like this: under setting [1], 96 % of control; under setting [2], 102 % of control; under setting [3], 98 % of control.
For `CC(NC(=O)C(C)(Br)C1CCCCC1)c1ccccc1` (centres undefined), the T/C runs as follows: under setting [4], 87 % of control; under setting [5], 91 % of control.
For `COc1cc(Cl)ccc1NC(=O)OCCOc1c(C(C)C)cccc1C(C)C`, the T/C is 101 % of control under setting [6], 101 % of control under setting [7] and 89 % of control under setting [8].
`Nc1cc(N)nc(N)n1`: the T/C runs as follows: under setting [4], 103 % of control; under setting [5], 105 % of control.
On to `CC(CC(C(=O)O)C(=O)O)C(=O)O` (centres undefined), for which the T/C by setting is: (endpoint: mean survival time, dose: 12.5 mg/kg/injection, schedule: Q01DX009 (ip), vehicle: water) 93 % of control; (endpoint: mean survival time, dose: 25.0 mg/kg/injection, schedule: Q01DX009 (ip), vehicle: water) 93 % of control; (endpoint: mean survival time, dose: 50.0 mg/kg/injection, schedule: Q01DX009 (ip), vehicle: water) 93 % of control; (endpoint: mean survival time, dose: 100.0 mg/kg/injection, schedule: Q01DX009 (ip), vehicle: water) 91 % of control.
On to `CCCCCNC(=O)CCC(NC(=O)c1ccc(N(C)Cc2cnc3nc(N)nc(N)c3n2)cc1)C(=O)O` (centres undefined), for which the T/C (endpoint: mean survival time, dose: 1.0 mg/kg/injection, schedule: Q01DX009 (ip), vehicle: sodium bicarbonate) is 107 % of control; the T/C (endpoint: mean survival time, dose: 10.0 mg/kg/injection, schedule: Q01DX009 (ip), vehicle: sodium bicarbonate) was 118 % of control; the T/C (endpoint: mean survival time, dose: 50.0 mg/kg/injection, schedule: Q01DX009 (ip), vehicle: sodium bicarbonate) was 122 % of control; the T/C (endpoint: mean survival time, dose: 200.0 mg/kg/injection, schedule: Q01DX009 (ip), vehicle: sodium bicarbonate) was 152 % of control; the T/C (endpoint: mean survival time, dose: 400.0 mg/kg/injection, schedule: Q01DX009 (ip), vehicle: sodium bicarbonate) is 164 % of control.
As to `O=[N+]([O-])c1cccc2c(S(=O)(=O)O)cccc12`, the T/C under setting [9] was 102 % of control and the T/C under setting [10] was 98 % of control.
As to `CCOC(=O)c1[nH]c(=S)[nH]c1C(=O)OCC`, the T/C (endpoint: mean survival time, dose: 100.0 mg/kg/injection, schedule: Q01DX001 (ip), vehicle: saline) was 100 % of control.
In the case of `N#Cc1nc(N)nc2c1ncn2-c1ccc(C(N)=O)cc1`, the T/C by setting is: under setting [4], 96 % of control; under setting [5], 101 % of control; under setting [11], 90 % of control.
Consider `O=[N+]([O-])c1cc(F)ccc1O`, for which, under setting [7], the T/C is 96 % of control.
With `COc1cccc2c1C(=O)OC2=O`, the T/C reads like this: (endpoint: mean survival time, dose: 12.5 mg/kg/injection, schedule: Q01DX005 (ip), vehicle: Klucel (hydroxypropylcellulose) (HPC)) 101 % of control; (endpoint: mean survival time, dose: 25.0 mg/kg/injection, schedule: Q01DX005 (ip), vehicle: Klucel (hydroxypropylcellulose) (HPC)) 101 % of control; (endpoint: mean survival time, dose: 50.0 mg/kg/injection, schedule: Q01DX005 (ip), vehicle: Klucel (hydroxypropylcellulose) (HPC)) 95 % of control; (endpoint: mean survival time, dose: 100.0 mg/kg/injection, schedule: Q01DX005 (ip), vehicle: Klucel (hydroxypropylcellulose) (HPC)) 94 % of control; (endpoint: mean survival time, dose: 200.0 mg/kg/injection, schedule: Q01DX005 (ip), vehicle: Klucel (hydroxypropylcellulose) (HPC)) 95 % of control.
With `CN(C)N=Nc1ccccc1[N+](=O)[O-]`, the T/C is 105 % of control (endpoint: mean survival time, dose: 53.0 mg/kg/injection, schedule: Q01DX001 (ip), vehicle: saline); 104 % of control (endpoint: mean survival time, dose: 53.0 mg/kg/injection, schedule: Q01DX009 (ip), vehicle: saline); 105 % of control (endpoint: mean survival time, dose: 79.0 mg/kg/injection, schedule: Q01DX001 (ip), vehicle: saline); 109 % of control (endpoint: mean survival time, dose: 79.0 mg/kg/injection, schedule: Q01DX009 (ip), vehicle: saline); 108 % of control (endpoint: mean survival time, dose: 119.0 mg/kg/injection, schedule: Q01DX001 (ip), vehicle: saline); 118 % of control (endpoint: mean survival time, dose: 119.0 mg/kg/injection, schedule: Q01DX009 (ip), vehicle: saline). Further, the T/C is 115 % of control (endpoint: mean survival time, dose: 178.0 mg/kg/injection, schedule: Q01DX001 (ip), vehicle: saline) and 118 % of control (endpoint: mean survival time, dose: 600.0 mg/kg/injection, schedule: Q01DX001 (ip), vehicle: saline).
Consider `CC1(C)N=C(N)N=C(N)N1c1ccc(OCCCCNC(=O)Nc2cccc(S(=O)(=O)F)c2)c(Cl)c1`, for which the T/C (endpoint: mean survival time, dose: 25.0 mg/kg/injection, schedule: Q01DX001 (ip), vehicle: saline with Tween-80) was 105 % of control; the T/C (endpoint: mean survival time, dose: 50.0 mg/kg/injection, schedule: Q01DX001 (ip), vehicle: saline with Tween-80) was 103 % of control; the T/C under setting [4] was 95 % of control and 97 % of control.
Turning to `Cc1ccc(S(=O)(=O)Nc2cccc3c(NS(=O)(=O)c4ccc(C)cc4)cccc23)cc1`, the T/C runs as follows: under setting [9], 96 % of control; under setting [10], 100 % of control; under setting [12], 96 % of control.
`N#CCCOS(=O)(=O)c1ccc(N)c([N+](=O)[O-])c1`: the T/C by setting is: under setting [4], 103 % of control; under setting [7], 93 % of control; under setting [5], 100 % of control; under setting [8], 96 % of control; under setting [11], 102 % of control; (endpoint: mean survival time, dose: 400.0 mg/kg/injection, schedule: Q01DX009 (ip), vehicle: saline with Tween-80) 96 % of control.
For `N#CC1CCCC1=O` (centres undefined), the T/C (endpoint: mean survival time, dose: 5.0 mg/kg/injection, schedule: Q04DX003 (ip), vehicle: saline) was 101 % of control; the T/C (endpoint: mean survival time, dose: 10.0 mg/kg/injection, schedule: Q04DX003 (ip), vehicle: saline) is 101 % of control; the T/C (endpoint: mean survival time, dose: 20.0 mg/kg/injection, schedule: Q04DX003 (ip), vehicle: saline) is 106 % of control.
With `O.O.[NH-]C1CCCCC1[NH-].[Pt+2]` (centres undefined), the T/C was 109 % of control (endpoint: mean survival time, dose: 0.31 mg/kg/injection, schedule: Q01DX009 (ip), vehicle: dextrose); 124 % of control (endpoint: mean survival time, dose: 0.63 mg/kg/injection, schedule: Q04DX003 (ip), vehicle: water); 124 % of control (endpoint: mean survival time, dose: 1.25 mg/kg/injection, schedule: Q01DX009 (ip), vehicle: dextrose).
As to `COc1ccc2[nH]c(-c3ccccc3)cc2c1`, the T/C is 93 % of control under setting [9], 88 % of control under setting [10] and 98 % of control under setting [12].
As for `COC(=O)C1(c2ccccn2)CCN(C)CC1`, the T/C runs as follows: under setting [1], 102 % of control; under setting [2], 98 % of control; under setting [3], 101 % of control.
Turning to `Cc1ccc(NC(=O)Nc2cccc(C(=O)O)c2)cc1[N+](=O)[O-]`, the T/C was 94 % of control under setting [6], 98 % of control under setting [7] and 98 % of control under setting [8].
On to `COC(=O)C1C2CCC(C2)C1C(=O)OC` (centres undefined), for which the T/C runs as follows: under setting [9], 97 % of control; under setting [10], 101 % of control; under setting [12], 93 % of control.
As for `CSc1ncnc2c1cnn2C1OC(CO)C(O)C1O` (centres undefined), the T/C runs as follows: (endpoint: mean survival time, dose: 12.5 mg/kg/injection, schedule: Q01DX005 (ip), vehicle: other) 93 % of control; (endpoint: mean survival time, dose: 25.0 mg/kg/injection, schedule: Q01DX005 (ip), vehicle: other) 100 % of control; (endpoint: mean survival time, dose: 50.0 mg/kg/injection, schedule: Q01DX005 (ip), vehicle: other) 105 % of control; (endpoint: mean survival time, dose: 100.0 mg/kg/injection, schedule: Q01DX005 (ip), vehicle: other) 122 % of control and 100 % of control; (endpoint: mean survival time, dose: 200.0 mg/kg/injection, schedule: Q01DX005 (ip), vehicle: other) 119 % of control and 112 % of control.
Regarding `CC(=O)N(N)c1ccccc1`, the T/C is 105 % of control under setting [4], 109 % of control under setting [5] and 105 % of control under setting [11].
Turning to `CC(=O)Oc1ccc2c(c1)C(=O)CCC=C2`, the T/C by setting is: (endpoint: mean survival time, dose: 12.5 mg/kg/injection, schedule: Q01DX009 (ip), vehicle: other) 103 % of control; (endpoint: mean survival time, dose: 25.0 mg/kg/injection, schedule: Q01DX009 (ip), vehicle: other) 106 % of control; (endpoint: mean survival time, dose: 50.0 mg/kg/injection, schedule: Q01DX009 (ip), vehicle: other) 108 % of control.
